For the experiment, the target named is 3T3 ROZ cells (Mus musculus, UniProt P21729). Kind of experiment: Inhibition of bombesin-stimulated mitogenesis (3H-thymidine uptake) of quiescent 3T3 ROZ cells. The experiment is classed as cell-based. Conditions: compared with the peptide from the other stereoisomer at the hydroxy position; test not named at b235.

The structures appear in SMILES notation.

Chain of 3T3 ROZ cells (P21729 whole entry): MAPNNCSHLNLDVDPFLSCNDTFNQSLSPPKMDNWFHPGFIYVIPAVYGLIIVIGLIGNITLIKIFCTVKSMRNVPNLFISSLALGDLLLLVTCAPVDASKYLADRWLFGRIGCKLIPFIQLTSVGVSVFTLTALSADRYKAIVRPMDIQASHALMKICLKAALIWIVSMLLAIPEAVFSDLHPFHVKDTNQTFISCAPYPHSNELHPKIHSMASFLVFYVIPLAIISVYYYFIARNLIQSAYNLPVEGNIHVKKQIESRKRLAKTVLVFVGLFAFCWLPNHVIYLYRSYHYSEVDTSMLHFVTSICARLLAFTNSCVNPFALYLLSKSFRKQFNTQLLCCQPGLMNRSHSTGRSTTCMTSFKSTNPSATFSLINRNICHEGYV
Method: Antagonistic activity was measured by inhibition of the mitogenic stimulation of quiescent 3T3 ROZ cells. […] Cells were incubated for eighteen hours with 10 ng/mL of BN either alone or in the presence of an antagonist. Cells were then pulsed-labeled for 2 hours with ^3 H-thymidine and washed. The incorporated ^3 H was then counted.
Potency of antagonists was measured by inhibition of this maximum response down to baseline level. IC50 values were determined from titration curves.

Consider `CC(C)[C@H](NC(=O)[C@H](C)NC(=O)[C@H](Cc1c[nH]c2ccccc12)NC(=O)[C@H](Cc1c[nH]cn1)NC(=O)CCc1ccccc1)C(=O)N[C@H](C)C(=O)N[C@@H](Cc1c[nH]cn1)C(=O)N1CCC[C@@H]1C(O)CC(=O)N[C@@H](Cc1ccccc1)C(N)=O` (single isomer, unassigned) [N--((3-Phenyl)Propionyl)--HisTrpAlaVal D--AlaHis(3-(2-Pyrrolidinyl-3Hydroxy)Propionyl)--Phe--NH2], for which the “relative activity of the two peptides made from the two hydroxy stereoisomers” value is recorded as “the more active of the two”.

These data come from patent US5620959A, “Bombesin antagonists” (Glaxo Wellcome Inc., priority 1990, dated 1997).
